From PubChem BioAssay (NCI)
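Where inhibition never reached the appropriate level, the endpoint shown equals the highest concentration tested. Otherwise, values were interpolated linearly from a five-concentration, 48-hour dose response in 96-well plates. GI50 is the concentration that inhibits growth by half. TGI: total growth inhibition.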

How the values were obtained:
Experiment in all cases: NCI-60 cell line screen, 48 h
[1] = test system: HOP-92 NSCLC
[2] = test system: T-47D breast
[3] = test system: HCT-15 colon
[4] = test system: HS 578T breast
[5] = test system: M14 melanoma
[6] = test system: SNB-75 CNS
[7] = test system: UACC-257 melanoma
[8] = test system: SR leukemia
[9] = test system: DU-145 prostate
[10] = test system: NCI-H23 lung
[11] = test system: UACC-62 melanoma
[12] = test system: OVCAR-8 ovarian
[13] = test system: CCRF-CEM leukemia
[14] = test system: MDA-MB-435
[15] = test system: CAKI-1 renal
[16] = test system: KM12 colon
[17] = test system: RXF 393 renal
[18] = test system: A498 renal
[19] = test system: PC-3 prostate
[20] = test system: MCF7 breast
[21] = test system: HOP-62 NSCLC
[22] = test system: HT29 colon
[23] = test system: SF-268 CNS
[24] = test system: NCI-H460 lung
[25] = test system: NCI/ADR-RES ovarian
[26] = test system: NCI-H226 lung
[27] = test system: 786-0 renal
[28] = test system: COLO 205 colon
[29] = test system: MDA-MB-231 breast
[30] = test system: SNB-19 CNS
[31] = test system: OVCAR-5 ovarian
[32] = test system: SK-MEL-28 melanoma
[33] = test system: SN12C renal
[34] = test system: IGROV1 ovarian
[35] = test system: BT-549 breast
[36] = test system: ACHN renal
[37] = test system: SF-539 CNS
[38] = test system: UO-31 renal
[39] = test system: A549 NSCLC
[40] = test system: U251 CNS
[41] = test system: SW-620 colon
[42] = test system: TK-10 renal
[43] = test system: OVCAR-4 ovarian
[44] = test system: HL-60(TB) leukemia
[45] = test system: SF-295 CNS
[46] = test system: OVCAR-3 ovarian
[47] = test system: SK-MEL-5 melanoma
[48] = test system: RPMI-8226 leukemia
[49] = test system: K-562 leukemia
[50] = test system: MOLT-4 leukemia
[51] = test system: HCC-2998 colon
[52] = test system: SK-OV-3 ovarian
[53] = test system: NCI-H522 lung
[54] = test system: SK-MEL-2 melanoma
[55] = test system: LOX IMVI melanoma
[56] = test system: MALME-3M melanoma
[57] = test system: HCT-116 colon

SMILES: Cn1cc(C2=C(c3cccc(Br)c3)C(=O)NC2=O)c2ccccc21
- GI50 [1]: 8.62 µM
- TGI [1]: > 25 µM
- GI50 [2]: 8.11 µM
- TGI [2]: > 25 µM
- GI50 [3]: 9.24 µM
- TGI [3]: > 25 µM
- GI50 [4]: 3.92 µM
- TGI [4]: > 25 µM
- GI50 [5]: 17.1 µM
- TGI [5]: > 25 µM
- GI50 [6]: 1180 nM
- TGI [6]: > 25 µM
- GI50 [7]: > 19.8 µM
- TGI [7]: > 25 µM
- GI50 [8]: 7.33 µM
- TGI [8]: > 25 µM
- GI50 [9]: > 25 µM
- TGI [9]: > 25 µM
- GI50 [10]: 12.5 µM
- TGI [10]: > 25 µM
- GI50 [11]: 11.3 µM
- TGI [11]: > 25 µM
- GI50 [12]: 12.6 µM
- TGI [12]: > 25 µM
- GI50 [13]: 12.3 µM
- TGI [13]: > 25 µM
- GI50 [14]: 5.82 µM
- TGI [14]: > 25 µM
- GI50 [15]: 9.63 µM
- TGI [15]: > 25 µM
- GI50 [16]: 8.43 µM
- TGI [16]: > 25 µM
- GI50 [17]: 8.3 µM
- TGI [17]: > 25 µM
- GI50 [18]: 4.51 µM
- TGI [18]: 17.9 µM
- GI50 [19]: 8.53 µM
- TGI [19]: > 25 µM
- GI50 [20]: 6.08 µM
- TGI [20]: > 25 µM
- GI50 [21]: 18.3 µM
- TGI [21]: > 25 µM
- GI50 [22]: > 15 µM
- TGI [22]: > 25 µM
- GI50 [23]: 15.5 µM
- TGI [23]: > 25 µM
- GI50 [24]: 16.9 µM
- TGI [24]: > 25 µM
- GI50 [25]: 8.85 µM
- TGI [25]: > 25 µM
- GI50 [26]: 10.4 µM
- TGI [26]: > 25 µM
- GI50 [27]: 12.1 µM
- TGI [27]: > 25 µM
- GI50 [28]: 13.9 µM
- TGI [28]: > 25 µM
- GI50 [29]: 18.7 µM
- TGI [29]: > 25 µM
- GI50 [30]: > 25 µM
- TGI [30]: > 25 µM
- GI50 [31]: > 25 µM
- TGI [31]: > 25 µM
- GI50 [32]: > 22.9 µM
- TGI [32]: > 25 µM
- GI50 [33]: 13.2 µM
- TGI [33]: > 25 µM
- GI50 [34]: 11 µM
- TGI [34]: > 25 µM
- GI50 [35]: 15.1 µM
- TGI [35]: > 25 µM
- GI50 [36]: 14.5 µM
- TGI [36]: > 25 µM
- GI50 [37]: 12.5 µM
- TGI [37]: > 25 µM
- GI50 [38]: 6.42 µM
- TGI [38]: > 25 µM
- GI50 [39]: 11.1 µM
- TGI [39]: > 25 µM
- GI50 [40]: 12.3 µM
- TGI [40]: > 25 µM
- GI50 [41]: 9.44 µM
- TGI [41]: > 25 µM
- GI50 [42]: > 18.6 µM
- TGI [42]: > 25 µM
- GI50 [43]: 12.6 µM
- TGI [43]: > 25 µM
- GI50 [44]: 10.2 µM
- TGI [44]: > 25 µM
- GI50 [45]: 12.9 µM
- TGI [45]: > 25 µM
- GI50 [46]: 9.51 µM
- TGI [46]: > 25 µM
- GI50 [47]: 6.23 µM
- TGI [47]: 22.3 µM
- GI50 [48]: 20.1 µM
- TGI [48]: > 25 µM
- GI50 [49]: 8.65 µM
- TGI [49]: > 25 µM
- GI50 [50]: 9.91 µM
- TGI [50]: > 25 µM
- GI50 [51]: > 16 µM
- TGI [51]: > 25 µM
- GI50 [52]: 10.3 µM
- TGI [52]: > 25 µM
- GI50 [53]: 10.4 µM
- TGI [53]: > 25 µM
- GI50 [54]: 11.6 µM
- TGI [54]: > 21.6 µM
- GI50 [55]: 12 µM
- TGI [55]: > 25 µM
- GI50 [56]: > 19.2 µM
- TGI [56]: > 25 µM
- GI50 [57]: 7.62 µM
- TGI [57]: > 25 µM
